Experimental data published in US5741669A, “Insecticidally effective peptides” (FMC Corporation, priority 1995, dated 1998).

B1: NPS-373 (protein)
chain: MKLQLMICLVLLPCFFCEPDEICRARMTNKEFTYKSNVCNGCGDQVAACEAECFRNDVYTACHEAQKG

Tests used:
[1] = system: fall armyworm, Spodoptera frugiperda (FAW); experiment: Two-dose injection assay of toxins in FAW larvae; type: in vivo
Excerpt: (§1) The insects tested were last instar, laboratory reared larvae of the tobacco budworm, Heliothis virescens (TBW); the beet armyworm, Spodoptera exigua (BAW); the cabbage looper,Trichoplusia ni (CL); the corn earworm, Heliothis (Helicoverpa) zea (CEW); the fall armyworm, Spodoptera frugiperda (FAW); the soybean looper, Pseudoplusia includens (SBL); the European corn borer, Ostrinia nubilalis (ECB); and the diamondback moth, Plutella xylostella (DBM). Adult house flies, Musca domestica (HF) and adult Southern corn rootworm beetles, Diabrotica undecimpunctata (SRC) were also tested. The first six species (TBW, BAW, CL, CEW, FAW, and SBL) are in the family Noctuidae of the order Lepidoptera. O. nubilalis and P. xylostella are lepidopterans in the families Pyralidae and Plutellidae, respectively. […] Whole venom doses were calculated in terms of WVE. […] Doses of components from early fractionations were also calculated in terms of WVE; doses of purified toxins were calculated from ultraviolet absorbances at 280 nm. […]
(§2) Full dose-response assays were carried out in TBW (n=6), BAW (n=6), CL (n=6) and SCR (n=5). […] LD50 values were determined by log-probit analysis basic program for microcomputer. […] Because probit analysis requires two responses that are neither zero nor 100 percent, […] values in several cases had to be estimated rather than calculated directly. […]

[2] = system: rat hippocampal preparation, the Schaffer collateral-CA 1 pyramidal cell synapse; experiment: In vitro rat brain slice electrophysiology; type: cell-based; conditions: applied at 1 μm
Method: (§3) Injection of 30 μg of NPS-326 into the cerebral ventricles (n=3) or peritoneum (n=2) of male Swiss-Webster mice (~30 gm) had no effect. The effects of NPS-331 in mammalian systems were further tested by in vitro rat brain slice electrophysiology. […] The assay is capable of detecting a variety of effects on various mammalian ion channels and neurotransmitter receptors (Dunwiddie, in Electrophysiological Techniques in Pharmacology, Alan R. Liss, Inc., New York (1986), pp. 65-90).

[3] = system: cabbage looper, Trichoplusia ni (CL); experiment: Injection bioassay of whole venom and purified toxins in CL larvae; type: in vivo; conditions: T. ni (CL), log-probit analysis
Excerpt: as §1, §2

[4] = system: tobacco budworm, Heliothis virescens (TBW); experiment: Injection bioassay of whole venom and purified toxins in TBW larvae; type: in vivo; conditions: for LD50: H. virescens (TBW), log-probit analysis
Excerpt: The insects tested were last instar, laboratory reared larvae of the tobacco budworm, Heliothis virescens (TBW); the beet armyworm, Spodoptera exigua (BAW); the cabbage looper,Trichoplusia ni (CL); the corn earworm, Heliothis (Helicoverpa) zea (CEW); the fall armyworm, Spodoptera frugiperda (FAW); the soybean looper, Pseudoplusia includens (SBL); the European corn borer, Ostrinia nubilalis (ECB); and the diamondback moth, Plutella xylostella (DBM). Adult house flies, Musca domestica (HF) and adult Southern corn rootworm beetles, Diabrotica undecimpunctata (SRC) were also tested. The first six species (TBW, BAW, CL, CEW, FAW, and SBL) are in the family Noctuidae of the order Lepidoptera. O. nubilalis and P. xylostella are lepidopterans in the families Pyralidae and Plutellidae, respectively. M. domestica and D. undecimpunctata are in the orders Diptera and Coleoptera, respectively. All species tested are important pests in crop production except M. domestica which is a nuisance pest in agricultural and urban settings. All samples, whether whole venom or venom fractions, were prepared in filter-sterilized physiological saline, pH 6.5. Samples were administered by injection into the hemocoel at or near the lateral midline of the fourth abdominal segment; the needle was inserted at a shallow angle to avoid injury to internal organs. Whole venom doses were calculated in terms of WVE. One WVE is the amount of any material which is normally present in one microliter of whole milked venom. Doses of components from early fractionations were also calculated in terms of WVE; doses of purified toxins were calculated from ultraviolet absorbances at 280 nm. Scopes, Anal. Biochem., 59:277 (1974). Control insects were given an equivalent volume of buffered saline solution.
Full dose-response assays were carried out in TBW (n=6), BAW (n=6), CL (n=6) and SCR (n=5). Other species were challenged with one or both toxins in a two-dose assay for purposes of estimating the toxins' activities in a variety of insects. LD50 values were determined by log-probit analysis basic program for microcomputer. Raymond, Set. Ent. med et Parasitol., 22:117 (1985). The insecticidal Tegenaria toxins generally have quite steep dose-response curves; frequently there is less than a 10-fold difference between a 100% lethal dose and a dose causing no mortality. Because probit analysis requires two responses that are neither zero nor 100 percent, […] values in several cases had to be estimated rather than calculated directly. In every case, however, there was an obvious and statistically significant dose response.

[5] = system: European corn borer, Ostrinia nubilalis (ECB); experiment: Two-dose injection assay of toxins in ECB larvae; type: in vivo
Excerpt: as §1, §2

[6] = system: Southern corn rootworm beetles, Diabrotica undecimpunctata (SCR); experiment: Injection bioassay of toxins in adult Southern corn rootworm beetles; type: in vivo; conditions: D. undecimpunctata (SCR), NPS-326 value estimated (highest dose 100% mortality, rest none)
Excerpt: as §1, §2

[7] = system: corn earworm, Heliothis (Helicoverpa) zea (CEW); experiment: Two-dose injection assay of toxins in CEW larvae; type: in vivo
Excerpt: as §1, §2

[8] = system: beet armyworm, Spodoptera exigua (BAW); experiment: Injection bioassay of whole venom and purified toxins in BAW larvae; type: in vivo; conditions: S. exigua (BAW), estimate based on 50% mortality at this dose, all other responses 0% or 100%
Excerpt: as §1, §2

[9] = system: house flies, Musca domestica (HF); experiment: Injection bioassay of toxins in adult house flies; type: in vivo; conditions: M. domestica (HF), estimate from two-dose assay (100% and 30% mortality; control 10%)
Excerpt: as §1, §2

[10] = system: soybean looper, Pseudoplusia includens (SBL); experiment: Two-dose injection assay of toxins in SBL larvae; type: in vivo
Excerpt: as §1, §2

[11] = system: diamondback moth, Plutella xylostella (DBM); experiment: Injection assay of toxin in DBM larvae; type: in vivo
Excerpt: as §1, §2

male Swiss-Webster mice = experiment: Mammalian toxicity test by injection in mice; type: in vivo; conditions: 30 μg, male Swiss-Webster mice (~30 gm)
Method: as §3

| Molecule | estimated LD50 [1] | effect on evoked synaptic responses [2] | LD50 [3] | LD50 [4] | estimated LD50 [5] | LD50 [6] | estimated LD50 [7] | LD50 [8] | LD50 [9] | estimated LD50 [10] | approximate LD50 ([4]; TBW, venom-derived toxin) | treated larvae developing tremors, spasms and convulsions ([11]; 1.1 nmol/gm, within 24 hours) | estimated LD50 ([11]; DBM larvae) | effect of injection into the peritoneum (male Swiss-Webster mice; n=2) | effect of injection into the cerebral ventricles (male Swiss-Webster mice; n=3) | treated larvae paralyzed ([4]; 7.7 μg/g, TBW, n=6) |
| --- | --- | --- | --- | --- | --- | --- | --- | --- | --- | --- | --- | --- | --- | --- | --- | --- |
| NPS-331 (EPDEICRARMTNKEFTYKSNVCNNCGDQVAACEAECFRNDVYTACHEAQK) | 1.84 nmol/gm | without effect | 0.22 nmol/gm | 2.6 nmol/gm | 0.64 nmol/gm | 0.57 nmol/gm | 1 nmol/gm | ~0.29 nmol/gm | ~0.7 nmol/gm | 1.05 nmol/gm |  |  |  |  |  |  |
| NPS-326 (EPDEICRARMTHKEFNYKSNVCNGCGDQVAACEAECFRNDVYTACHEAQK) | 5.3 nmol/gm |  | 0.78 nmol/gm | 0.89 nmol/gm | 1.1 nmol/gm | ~2.0 nmol/gm | 0.8 nmol/gm | ~0.88 nmol/gm |  | 1.55 nmol/gm | ~5.7 µg/g | 90% | < 1.1 nmol/gm | no effect | no effect |  |
| B1 |  |  |  |  |  |  |  |  |  |  |  |  |  |  |  | 50% |
